Reference: PubChem BioAssay AID1963869 (Molecular Pharmacology Branch, DTP, NCI, 2024)

Test system: KRAS patient-derived spheroids with HUVEC/MSC, viability
Experiment: Anticancer human tumor 323965-272-R-J2-PDC patient-derived pancreatic carcinoma cell line growth inhibition [KRAS2]
Conditions: for IC50: curve of first compound; for viability, T/C: stronger effect = lower value
Source text: Multicellular complex tumor spheroid response to RAS pathway inhibitors in combination with a targeted agents in patient-derived cell lines with oncogenic KRAS variants from multiple cancer types
A high-throughput screen of multi-cell type tumor spheroids was designed to identify active combinations of targeted small molecules and KRAS pathway inhibitors. Complex spheroids include a stromal component modeled by human endothelial cells (HUVEC) and fibroblasts modeled by human mesenchymal stem cells (MSCs). The concentration ranges selected for each drug and investigational agent were based upon clinically achievable concentrations if the clinical Cmax of the agent was known.
Compounds. The drugs and investigational agents: BI-3406 (NSC825286), BAY-293 (NSC824723), batoprotafib (TNO155; NSC825523), sotorasib (AMG 510; NSC818433), MRTX1257 (NSC819558), elimusertib (BAY 1895344; NSC800525), molibresib (GSK525762; NSC774829), temuterkib (LY3214996; NSC803410), venetoclax (NSC766270), alisertib (NSC759677), olaparib (NSC753686), talazoparib (NSC767125), erdafitinib (NSC781556), ipatasertib (NSC767898), cabozantinib (NSC761068), nintedanib (NSC756659), abemaciclib (NSC768073), docetaxel (NSC628503), trametinib (NSC758246), and sapanisertib (NSC764658) were obtained from the National Cancer Institute (NCI) Developmental Therapeutics Program Chemical Repository. The FDA-approved anticancer drug set is available from the Developmental Therapeutics Program. […] The stock solutions were prepared in dimethyl sulfoxide (DMSO, Sigma-Aldrich, St. Louis, MO, cat. D2650) at 800-fold the tested concentration and stored at -70 degrees C prior to their use. All drugs and investigational agents were tested over a range starting from a high concentration at or near the clinical Cmax and decreasing in half-log increments. If the clinical Cmax for an agent had not been determined, the highest concentration tested was 10 microM.
Cell Culture. All cells were maintained in an incubator at 37 degrees C and 5% CO2 with 95% humidity. The PDC lines were cultured according to standard operating procedures established by the NCI PDMR (https://pdmr.cancer.gov/sops/default.htm). Briefly, all PDCs were thawed and cultured in Matrigel-coated flasks prepared with a working solution of 1X Ham's F-12 nutrient mix, without supplementation (Invitrogen, Waltham, MA, cat. 11765054), 100 U/mL penicillin-streptomycin (Invitrogen, cat. 15140122), and 2.5% Matrigel (Corning Inc., Corning, NY, cat. 354248) for the first three passages. All PDCs were cultured in complete DMEM/F-12 media containing advanced DMEM/F-12 (Invitrogen, cat. 12634028), 4.9% defined fetal bovine serum, heat inactivated (HyClone Laboratories Inc., Logan, UT, cat. SH30070.03HI), 389 ng/mL hydrocortisone (Sigma-Aldrich, cat. H4001), 9.7 ng/mL human EGF recombinant protein (Invitrogen, cat. PHG0313), 23.4 microg/mL adenine (Sigma-Aldrich, cat. A2786), 97.3 U/mL penicillin-streptomycin (Invitrogen, cat. 15140122), 1.9 mM L-glutamine (Invitrogen, cat. 25030081), and 9.7 microM Y-27632 dihydrochloride (Tocris Bioscience, Bristol, United Kingdom, cat. 1254). The PDCs were cultured in complete DMEM/F12 media without 9.7 microM Y-27632 dihydrochloride for at least two passages prior to the screen. The established cell line HOP-62 was cultured in RPMI 1640 medium, HEPES (Invitrogen, cat. 22400105) with 10% defined fetal bovine serum (HyClone Laboratories Inc., cat. SH30070.03) and 2 mM L-glutamine (Invitrogen, cat. 25030081). The pooled donor HUVEC were cultured in endothelial cell growth medium 2 (PromoCell, Heidelberg, Germany, cat. C-22011) and the hMSC were cultured in mesenchymal stem cell growth medium 2 (PromoCell, cat. C-28009). For all experiments, HUVEC and hMSC were used at passages </=5, while the malignant cell lines were used at passages </=15. […]

[1] = second compound 0.1 µM, first compound 0.01 µM
[2] = second compound 0.1 µM, first compound 0.0316 µM
[3] = second compound 0.1 µM, first compound 0.1 µM
[4] = second compound 0.1 µM, first compound 0.316 µM
[5] = second compound 0.1 µM, first compound 1 µM
[6] = second compound 0.1 µM, first compound 3.16 µM
[7] = second compound 0.316 µM, first compound 0.01 µM
[8] = second compound 0.316 µM, first compound 0.0316 µM
[9] = second compound 0.316 µM, first compound 0.1 µM
[10] = second compound 0.316 µM, first compound 0.316 µM
[11] = second compound 0.316 µM, first compound 1 µM
[12] = second compound 0.316 µM, first compound 3.16 µM
[13] = second compound 1 µM, first compound 0.01 µM
[14] = second compound 1 µM, first compound 0.0316 µM
[15] = second compound 1 µM, first compound 0.1 µM
[16] = second compound 1 µM, first compound 0.316 µM
[17] = second compound 1 µM, first compound 1 µM
[18] = second compound 1 µM, first compound 3.16 µM
[19] = second compound 3.16 µM, first compound 0.01 µM
[20] = second compound 3.16 µM, first compound 0.0316 µM
[21] = second compound 3.16 µM, first compound 0.1 µM
[22] = second compound 3.16 µM, first compound 0.316 µM
[23] = second compound 3.16 µM, first compound 1 µM
[24] = second compound 3.16 µM, first compound 3.16 µM
[25] = second compound 10 µM, first compound 0.01 µM
[26] = second compound 10 µM, first compound 0.0316 µM
[27] = second compound 10 µM, first compound 0.1 µM
[28] = second compound 10 µM, first compound 0.316 µM
[29] = second compound 10 µM, first compound 1 µM
[30] = second compound 10 µM, first compound 3.16 µM
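Also: spheroids exposed to agents for 7 days.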
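For viability, T/C in this document: 100% = DMSO vehicle control viability.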

Compound | IC50 (second compound 0.1 µM) [nM] | IC50 (second compound 0.316 µM) [nM] | IC50 (second compound 1 µM) [nM] | IC50 (second compound 3.16 µM) [nM] | IC50 (second compound 10 µM) [nM] | viability, T/C [1] [%] | viability, T/C [2] [%] | viability, T/C [3] [%] | viability, T/C [4] [%] | viability, T/C [5] [%] | viability, T/C [6] [%] | viability, T/C [7] [%] | viability, T/C [8] [%] | viability, T/C [9] [%] | viability, T/C [14] [%] | viability, T/C [15] [%] | viability, T/C [20] [%] | viability, T/C [21] [%] | viability, T/C [26] [%] | viability, T/C [27] [%] | further results
CC(=O)OC12COC1CC(O)C1(C)C(=O)C(O)C3=C(C)C(OC(=O)C(O)C(NC(=O)OC(C)(C)C)c4ccccc4)CC(O)(C(OC(=O)c4ccccc4)C21)C3(C)C (stereo not given) + CC1OCC2(CCN(c3cnc(Sc4ccnc(N)c4Cl)c(N)n3)CC2)C1N | < 10 | < 10 | < 10 | < 10 | < 10 | 26.3 | 25.6 | 25.5 | 21.7 | 27 | 27.7 | 23.8 | 23.9 | 21.3 | 33.5 | 31.2 | 16.3 | 14.8 | 16.5 | 15.9 | viability, T/C [10]: 19.8%; viability, T/C [11]: 23%; viability, T/C [12]: 23.5%; viability, T/C [13]: 34.2%; viability, T/C [16]: 32.4%; viability, T/C [17]: 37.2%; viability, T/C [18]: 39.7%; viability, T/C [19]: 16.9%; viability, T/C [22]: 14.1%; viability, T/C [23]: 15.2%; viability, T/C [24]: 17.2%; viability, T/C [25]: 18.1%; viability, T/C [28]: 12.3%; viability, T/C [29]: 13.9%; viability, T/C [30]: 16.7%
CN(C)C/C=C/C(=O)Nc1cc2c(Nc3ccc(F)c(Cl)c3)ncnc2cc1O[C@H]1CCOC1 + C=CC(=O)N1CCN(c2nc(=O)n(-c3c(C)ccnc3C(C)C)c3nc(-c4c(O)cccc4F)c(F)cc23)C(C)C1 | 6.19 | 1.29 | 1.87 | 4.24 | 1.48 | 57.7 | 43.1 | 44 |  |  |  | 42.4 | 41.8 | 40.5 | 37.8 | 44.6 | 40.5 | 42.5 | 45.7 | 43.5 | viability, T/C (second compound 0.1 µM, first compound 0.000316 µM): 63.3%; viability, T/C (second compound 0.1 µM, first compound 0.001 µM): 50.9%; viability, T/C (second compound 0.1 µM, first compound 0.00316 µM): 49.6%; viability, T/C (second compound 0.316 µM, first compound 0.000316 µM): 61.3%; viability, T/C (second compound 0.316 µM, first compound 0.001 µM): 50%; viability, T/C (second compound 0.316 µM, first compound 0.00316 µM): 47.3%; viability, T/C (second compound 1 µM, first compound 0.000316 µM): 58.6%; viability, T/C (second compound 1 µM, first compound 0.001 µM): 54.2%; viability, T/C (second compound 1 µM, first compound 0.00316 µM): 50.5%; viability, T/C [13]: 41.3%; viability, T/C (second compound 3.16 µM, first compound 0.000316 µM): 58.1%; viability, T/C (second compound 3.16 µM, first compound 0.001 µM): 58%; viability, T/C (second compound 3.16 µM, first compound 0.00316 µM): 50.1%; viability, T/C [19]: 48%; viability, T/C (second compound 10 µM, first compound 0.000316 µM): 62.2%; viability, T/C (second compound 10 µM, first compound 0.001 µM): 53%; viability, T/C (second compound 10 µM, first compound 0.00316 µM): 44.6%; viability, T/C [25]: 45.6%
Cn1nccc1Nc1nccc(-c2cc3c(s2)C(C)(C)N(CCN2CCOCC2)C3=O)n1 + CNCc1ccccc1-c1csc(C(C)Nc2nc(C)nc3cc(OC)c(OC)cc23)c1 | 1050 | 1360 | 3970 | 1660 | < 31.6 |  | 98.5 | 84.4 | 64.6 | 51.3 | 41 |  | 86.9 | 79.3 | 95.5 | 89.4 | 92.6 | 78.5 | 0.23 | 0.22 | viability, T/C (second compound 0.1 µM, first compound 10 µM): 37.2%; viability, T/C [10]: 71.9%; viability, T/C [11]: 52.2%; viability, T/C [12]: 41.7%; viability, T/C (second compound 0.316 µM, first compound 10 µM): 38.1%; viability, T/C [16]: 72.8%; viability, T/C [17]: 67.3%; viability, T/C [18]: 48.1%; viability, T/C (second compound 1 µM, first compound 10 µM): 45%; viability, T/C [22]: 70%; viability, T/C [23]: 54.9%; viability, T/C [24]: 43.2%; viability, T/C (second compound 3.16 µM, first compound 10 µM): 30%; viability, T/C [28]: 0.19%; viability, T/C [29]: 0.17%; viability, T/C [30]: 0.17%; viability, T/C (second compound 10 µM, first compound 10 µM): 0.19%
CC1COCCN1c1cc(-c2ccnn2C)c2ccnc(-c3ccn[nH]3)c2n1 (stereo not given) + COc1cc2nc(C)nc(NC(C)c3cc(N)cc(C(F)(F)F)c3)c2cc1OC1CCOC1 | 14.9 | 11 | 11.3 | 10.5 | < 10 | 62 | 26.8 | 16.5 | 12.8 | 11.5 | 12.2 | 52.5 | 24.2 | 13.1 | 21.4 | 12.4 | 19.5 | 9.99 | 20.9 | 9.39 | viability, T/C [10]: 12%; viability, T/C [11]: 11.6%; viability, T/C [12]: 11.6%; viability, T/C [13]: 53.5%; viability, T/C [16]: 10.3%; viability, T/C [17]: 10%; viability, T/C [18]: 11%; viability, T/C [19]: 51.4%; viability, T/C [22]: 9.71%; viability, T/C [23]: 9.06%; viability, T/C [24]: 9.91%; viability, T/C [25]: 41.9%; viability, T/C [28]: 9.15%; viability, T/C [29]: 7.92%; viability, T/C [30]: 6.55%
